Experimental findings from ChEMBL document CHEMBL4507263, “Data for DCP probe BAY-474” (2021) are described below.

Test [1] concerns the target Calcium/calmodulin-dependent protein kinase type II subunit gamma (Homo sapiens) (UniProt Q13555). The test can be described thus: CaMKIIgamma (h) Millipore kinase activity assay. To be noted: Compound concentration 1.0 uM.
The target in test [2] is Casein kinase I isoform gamma-1 (Homo sapiens) (UniProt Q9HCP0). The test can be described thus: CK1gamma1 (h) Millipore kinase activity assay. The conditions noted are these: Compound concentration 1.0 uM.
Test [3] has as its target Discoidin domain-containing receptor 2 (Homo sapiens) (UniProt Q16832). The test can be described thus: DDR2 (h) Millipore kinase activity assay. To be noted: Compound concentration 1.0 uM.
Test [4] concerns the target Ephrin type-B receptor 3 (Homo sapiens) (UniProt P54753). The test can be described thus: EphB3 (h) Millipore kinase activity assay. The conditions noted are these: Compound concentration 1.0 uM.
Test [5] has as its target Vascular endothelial growth factor receptor 3 (Homo sapiens) (UniProt P35916). The test can be described thus: Flt4 (h) Millipore kinase activity assay. The conditions noted are these: Compound concentration 1.0 uM.
In test [6] the target is G protein-coupled receptor kinase 6 (Homo sapiens) (UniProt P43250). The test can be described thus: GRK6 (h) Millipore kinase activity assay. To be noted: Compound concentration 1.0 uM.
Test [7] addresses Homeodomain-interacting protein kinase 1 (Homo sapiens) (UniProt Q86Z02). The test can be described thus: HIPK1 (h) Millipore kinase activity assay. To be noted: Compound concentration 1.0 uM.
The target of test [8] is Vascular endothelial growth factor receptor 2 (Homo sapiens) (UniProt P35968). The test can be described thus: KDR (h) Millipore kinase activity assay. To be noted: Compound concentration 1.0 uM.
Test [9] has as its target LIM domain kinase 1 (Homo sapiens) (UniProt P53667). The test can be described thus: LIMK1 (h) Millipore kinase activity assay. The conditions noted are these: Compound concentration 1.0 uM.
Test [10] deals with Maternal embryonic leucine zipper kinase (Homo sapiens) (UniProt Q14680). The test can be described thus: MELK (h) Millipore kinase activity assay. The conditions noted are these: Compound concentration 1.0 uM.
For test [11], the target named is Myosin light chain kinase (Homo sapiens) (UniProt Q32MK0). The test can be described thus: MLCK (h) Millipore kinase activity assay. The conditions noted are these: Compound concentration 1.0 uM.
Test [12] addresses Rho-associated protein kinase 2 (Homo sapiens) (UniProt O75116). The test can be described thus: ROCK-II (h) Millipore kinase activity assay. To be noted: Compound concentration 1.0 uM.
The target of test [13] is Serine/threonine-protein kinase TBK1 (Homo sapiens) (UniProt Q9UHD2). The test can be described thus: TBK1 (h) Millipore kinase activity assay. To be noted: Compound concentration 1.0 uM.
Test [14] addresses Prostaglandin E2 receptor EP4 subtype (Homo sapiens) (UniProt P35408). The test can be described thus: Inhibition of Prostanoid EP4 at 10 µM in the Eurofins-Panlabs radioligand binding assay (Eurofins_assay_268420). On the set-up: ligand concentration 1 nM. To be noted: Compound concentration 10.0 uM.
The target in test [15] is D(3) dopamine receptor (Homo sapiens) (UniProt P35462). To be noted: Compound concentration 10.0 uM.
Test [16] concerns Tyrosine-protein kinase ABL1 (Homo sapiens), P00519 [F317I]. To be noted: Compound concentration 1000.0 nM.
For test [17], the system named is Tyrosine-protein kinase ABL1 (Homo sapiens), P00519 [F317L]. To be noted: Compound concentration 1000.0 nM.
Test [18] addresses Mitogen-activated protein kinase kinase kinase 5 (Homo sapiens) (UniProt Q99683). The conditions noted are these: Compound concentration 1000.0 nM.
The target of test [19] is Calcium/calmodulin-dependent protein kinase type II subunit delta (Homo sapiens) (UniProt Q13557). To be noted: Compound concentration 1000.0 nM.
For test [20], the target named is Calcium/calmodulin-dependent protein kinase type IV (Homo sapiens) (UniProt Q16566). To be noted: Compound concentration 1000.0 nM.
Test [21] addresses Casein kinase II subunit alpha (Homo sapiens) (UniProt P68400). To be noted: Compound concentration 1000.0 nM.
Test [22] concerns the target Casein kinase II subunit alpha' (Homo sapiens) (UniProt P19784). The conditions noted are these: Compound concentration 1000.0 nM.
Test [23] deals with Serine/threonine-protein kinase DCLK2 (Homo sapiens) (UniProt Q8N568). The conditions noted are these: Compound concentration 1000.0 nM.
For test [24], the target named is Dual specificity tyrosine-phosphorylation-regulated kinase 1A (Homo sapiens) (UniProt Q13627). To be noted: Compound concentration 1000.0 nM.
In test [25] the target is Epidermal growth factor receptor (Homo sapiens) (UniProt P00533). To be noted: Compound concentration 1000.0 nM.
In test [26] the target is Tyrosine-protein kinase JAK2 (Homo sapiens) (UniProt O60674). To be noted: Compound concentration 1000.0 nM.
Sequence of Tyrosine-protein kinase JAK2 (Homo sapiens) (O60674 whole entry): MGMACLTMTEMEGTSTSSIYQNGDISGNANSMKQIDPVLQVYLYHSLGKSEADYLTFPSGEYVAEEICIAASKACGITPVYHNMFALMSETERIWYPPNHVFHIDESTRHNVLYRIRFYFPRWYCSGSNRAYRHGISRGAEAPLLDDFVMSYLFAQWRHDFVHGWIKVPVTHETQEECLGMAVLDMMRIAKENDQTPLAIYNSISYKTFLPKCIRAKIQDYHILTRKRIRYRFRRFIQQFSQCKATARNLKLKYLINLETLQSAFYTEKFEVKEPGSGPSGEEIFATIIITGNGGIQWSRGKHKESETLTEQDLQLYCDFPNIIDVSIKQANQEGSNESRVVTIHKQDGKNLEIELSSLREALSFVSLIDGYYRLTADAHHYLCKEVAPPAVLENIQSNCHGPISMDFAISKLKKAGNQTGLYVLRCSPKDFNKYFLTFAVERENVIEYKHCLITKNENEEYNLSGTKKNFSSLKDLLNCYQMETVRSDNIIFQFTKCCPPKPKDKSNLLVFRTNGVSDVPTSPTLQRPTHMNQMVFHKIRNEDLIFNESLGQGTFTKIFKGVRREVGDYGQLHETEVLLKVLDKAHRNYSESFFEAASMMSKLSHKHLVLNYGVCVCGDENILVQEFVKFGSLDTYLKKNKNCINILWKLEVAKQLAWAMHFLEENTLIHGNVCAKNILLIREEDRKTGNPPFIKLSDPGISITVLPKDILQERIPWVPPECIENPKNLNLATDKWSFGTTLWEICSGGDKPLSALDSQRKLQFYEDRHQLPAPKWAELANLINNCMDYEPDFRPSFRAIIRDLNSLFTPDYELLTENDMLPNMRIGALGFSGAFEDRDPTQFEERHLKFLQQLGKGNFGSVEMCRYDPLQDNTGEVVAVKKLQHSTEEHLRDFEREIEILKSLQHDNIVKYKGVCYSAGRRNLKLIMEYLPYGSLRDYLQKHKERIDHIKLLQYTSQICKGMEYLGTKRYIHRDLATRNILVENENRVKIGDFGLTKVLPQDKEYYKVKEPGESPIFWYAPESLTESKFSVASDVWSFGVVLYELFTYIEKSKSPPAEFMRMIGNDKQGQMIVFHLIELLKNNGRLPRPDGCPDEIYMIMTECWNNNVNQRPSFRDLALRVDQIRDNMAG
Test [27] relates to Mast/stem cell growth factor receptor Kit (Homo sapiens), P10721 [D816H]. The conditions noted are these: Compound concentration 1000.0 nM.
Sequence of Mast/stem cell growth factor receptor Kit (Homo sapiens), P10721 [D816H] (P10721 whole entry D816H): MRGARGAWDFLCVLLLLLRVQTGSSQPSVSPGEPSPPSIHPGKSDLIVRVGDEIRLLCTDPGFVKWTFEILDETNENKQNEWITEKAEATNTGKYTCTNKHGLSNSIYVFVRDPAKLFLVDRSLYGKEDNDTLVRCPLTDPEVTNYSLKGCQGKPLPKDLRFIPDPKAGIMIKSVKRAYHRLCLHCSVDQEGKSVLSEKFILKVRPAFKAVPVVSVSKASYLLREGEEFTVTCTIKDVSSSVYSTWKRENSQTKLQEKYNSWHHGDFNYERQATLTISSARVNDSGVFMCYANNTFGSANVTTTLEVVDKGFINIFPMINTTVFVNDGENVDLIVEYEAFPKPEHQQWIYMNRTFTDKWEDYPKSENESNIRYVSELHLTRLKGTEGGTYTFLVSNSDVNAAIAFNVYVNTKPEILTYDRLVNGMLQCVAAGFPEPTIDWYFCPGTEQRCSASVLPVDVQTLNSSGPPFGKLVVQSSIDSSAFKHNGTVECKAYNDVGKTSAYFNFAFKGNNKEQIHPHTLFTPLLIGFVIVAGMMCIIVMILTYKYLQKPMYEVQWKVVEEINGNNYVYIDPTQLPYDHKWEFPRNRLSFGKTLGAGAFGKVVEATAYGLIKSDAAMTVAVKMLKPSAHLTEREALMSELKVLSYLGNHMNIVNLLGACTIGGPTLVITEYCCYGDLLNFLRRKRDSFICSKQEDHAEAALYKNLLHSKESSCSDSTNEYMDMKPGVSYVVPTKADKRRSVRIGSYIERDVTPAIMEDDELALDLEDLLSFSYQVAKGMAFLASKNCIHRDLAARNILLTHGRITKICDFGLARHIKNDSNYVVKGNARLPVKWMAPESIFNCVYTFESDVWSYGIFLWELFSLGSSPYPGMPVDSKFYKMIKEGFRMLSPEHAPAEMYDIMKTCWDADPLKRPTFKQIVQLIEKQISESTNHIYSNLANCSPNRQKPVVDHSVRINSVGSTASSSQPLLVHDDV
The target of test [28] is Dual specificity mitogen-activated protein kinase kinase 2 (Homo sapiens) (UniProt P36507). The conditions noted are these: Compound concentration 1000.0 nM.
Sequence of Dual specificity mitogen-activated protein kinase kinase 2 (Homo sapiens) (P36507 whole entry): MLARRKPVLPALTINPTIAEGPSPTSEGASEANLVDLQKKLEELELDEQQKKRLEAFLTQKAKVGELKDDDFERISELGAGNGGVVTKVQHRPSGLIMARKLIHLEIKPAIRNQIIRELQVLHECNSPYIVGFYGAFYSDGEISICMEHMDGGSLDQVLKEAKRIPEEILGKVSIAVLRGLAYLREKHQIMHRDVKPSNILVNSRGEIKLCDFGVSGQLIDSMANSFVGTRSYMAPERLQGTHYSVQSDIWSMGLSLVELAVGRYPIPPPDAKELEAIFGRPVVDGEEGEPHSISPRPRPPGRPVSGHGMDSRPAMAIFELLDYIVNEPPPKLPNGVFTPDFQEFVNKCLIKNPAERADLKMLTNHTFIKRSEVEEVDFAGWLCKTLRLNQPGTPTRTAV
In test [29] the target is Serine/threonine-protein kinase 4 (Homo sapiens) (UniProt Q13043). To be noted: Compound concentration 1000.0 nM.
Test [30] addresses Serine/threonine-protein kinase 3 (Homo sapiens) (UniProt Q13188). To be noted: Compound concentration 1000.0 nM.
Test [31] has as its target Myosin-IIIa (Homo sapiens) (UniProt Q8NEV4). To be noted: Compound concentration 1000.0 nM.
In test [32] the target is Serine/threonine-protein kinase Nek3 (Homo sapiens) (UniProt P51956). To be noted: Compound concentration 1000.0 nM.
The target in test [33] is Serine/threonine-protein kinase Nek6 (Homo sapiens) (UniProt Q9HC98). The conditions noted are these: Compound concentration 1000.0 nM.
Test [34] concerns the target Serine/threonine-protein kinase pim-1 (Homo sapiens) (UniProt P11309). The conditions noted are these: Compound concentration 1000.0 nM.
Test [35] has as its target Serine/threonine-protein kinase pim-2 (Homo sapiens) (UniProt Q9P1W9). The conditions noted are these: Compound concentration 1000.0 nM.
For test [36], the target named is Serine/threonine-protein kinase PLK3 (Homo sapiens) (UniProt Q9H4B4). The conditions noted are these: Compound concentration 1000.0 nM.
Test [37] addresses Serine/threonine-protein kinase PLK4 (Homo sapiens) (UniProt O00444). To be noted: Compound concentration 1000.0 nM.
Test [38] concerns the target Protein kinase C iota type (Homo sapiens) (UniProt P41743). The conditions noted are these: Compound concentration 1000.0 nM.
For test [39], the target named is Protein kinase C theta type (Homo sapiens) (UniProt Q04759). To be noted: Compound concentration 1000.0 nM.
For test [40], the target named is Serine/threonine-protein kinase D3 (Homo sapiens) (UniProt O94806). The conditions noted are these: Compound concentration 1000.0 nM.
Test [41] concerns the target RAF proto-oncogene serine/threonine-protein kinase (Homo sapiens) (UniProt P04049). To be noted: Compound concentration 1000.0 nM.
Test [42] addresses Ribosomal protein S6 kinase alpha-3 (Homo sapiens, UniProt P51812). The conditions noted are these: Compound concentration 1000.0 nM.
Test [43] deals with Serine/threonine-protein kinase Sgk1 (Homo sapiens) (UniProt O00141). To be noted: Compound concentration 1000.0 nM.
Test [44] addresses Serine/threonine-protein kinase 36 (Homo sapiens) (UniProt Q9NRP7). To be noted: Compound concentration 1000.0 nM.
The target in test [45] is Tyrosine-protein kinase SYK (Homo sapiens) (UniProt P43405). To be noted: Compound concentration 1000.0 nM.
Test [46] deals with Serine/threonine-protein kinase WNK2 (Homo sapiens) (UniProt Q9Y3S1). To be noted: Compound concentration 1000.0 nM.

Each structure is given as a SMILES string.

The term inhibition denotes the change of the read-out against control, counted positive when it falls.

Sequence of Ephrin type-B receptor 3 (Homo sapiens) (P54753 whole entry): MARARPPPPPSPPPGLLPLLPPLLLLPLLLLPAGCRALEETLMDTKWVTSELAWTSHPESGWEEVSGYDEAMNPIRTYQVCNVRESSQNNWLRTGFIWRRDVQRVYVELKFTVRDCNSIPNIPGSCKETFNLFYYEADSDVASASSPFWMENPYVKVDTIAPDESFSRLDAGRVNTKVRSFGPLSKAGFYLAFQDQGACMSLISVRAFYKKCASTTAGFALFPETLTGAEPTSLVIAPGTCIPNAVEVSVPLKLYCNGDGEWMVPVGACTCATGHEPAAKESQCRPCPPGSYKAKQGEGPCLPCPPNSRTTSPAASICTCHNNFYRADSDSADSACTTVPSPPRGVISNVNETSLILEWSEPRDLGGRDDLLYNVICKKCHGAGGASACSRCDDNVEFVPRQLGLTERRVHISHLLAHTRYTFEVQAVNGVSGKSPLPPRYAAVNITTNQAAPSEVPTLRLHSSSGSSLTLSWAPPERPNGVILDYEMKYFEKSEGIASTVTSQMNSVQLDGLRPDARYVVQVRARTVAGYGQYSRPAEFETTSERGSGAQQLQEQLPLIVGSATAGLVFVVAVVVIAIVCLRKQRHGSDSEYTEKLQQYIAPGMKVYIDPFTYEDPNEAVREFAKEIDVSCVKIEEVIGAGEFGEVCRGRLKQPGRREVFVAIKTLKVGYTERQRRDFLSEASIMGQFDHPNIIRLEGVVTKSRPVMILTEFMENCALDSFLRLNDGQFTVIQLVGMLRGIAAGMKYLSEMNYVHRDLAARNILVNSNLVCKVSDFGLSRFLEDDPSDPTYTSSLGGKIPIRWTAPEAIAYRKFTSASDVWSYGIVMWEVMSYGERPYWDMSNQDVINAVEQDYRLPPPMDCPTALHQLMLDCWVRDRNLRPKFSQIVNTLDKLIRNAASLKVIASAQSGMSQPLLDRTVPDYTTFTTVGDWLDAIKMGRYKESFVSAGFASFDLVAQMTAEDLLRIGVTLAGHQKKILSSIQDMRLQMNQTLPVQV
Sequence of Serine/threonine-protein kinase PLK4 (Homo sapiens) (O00444 whole entry): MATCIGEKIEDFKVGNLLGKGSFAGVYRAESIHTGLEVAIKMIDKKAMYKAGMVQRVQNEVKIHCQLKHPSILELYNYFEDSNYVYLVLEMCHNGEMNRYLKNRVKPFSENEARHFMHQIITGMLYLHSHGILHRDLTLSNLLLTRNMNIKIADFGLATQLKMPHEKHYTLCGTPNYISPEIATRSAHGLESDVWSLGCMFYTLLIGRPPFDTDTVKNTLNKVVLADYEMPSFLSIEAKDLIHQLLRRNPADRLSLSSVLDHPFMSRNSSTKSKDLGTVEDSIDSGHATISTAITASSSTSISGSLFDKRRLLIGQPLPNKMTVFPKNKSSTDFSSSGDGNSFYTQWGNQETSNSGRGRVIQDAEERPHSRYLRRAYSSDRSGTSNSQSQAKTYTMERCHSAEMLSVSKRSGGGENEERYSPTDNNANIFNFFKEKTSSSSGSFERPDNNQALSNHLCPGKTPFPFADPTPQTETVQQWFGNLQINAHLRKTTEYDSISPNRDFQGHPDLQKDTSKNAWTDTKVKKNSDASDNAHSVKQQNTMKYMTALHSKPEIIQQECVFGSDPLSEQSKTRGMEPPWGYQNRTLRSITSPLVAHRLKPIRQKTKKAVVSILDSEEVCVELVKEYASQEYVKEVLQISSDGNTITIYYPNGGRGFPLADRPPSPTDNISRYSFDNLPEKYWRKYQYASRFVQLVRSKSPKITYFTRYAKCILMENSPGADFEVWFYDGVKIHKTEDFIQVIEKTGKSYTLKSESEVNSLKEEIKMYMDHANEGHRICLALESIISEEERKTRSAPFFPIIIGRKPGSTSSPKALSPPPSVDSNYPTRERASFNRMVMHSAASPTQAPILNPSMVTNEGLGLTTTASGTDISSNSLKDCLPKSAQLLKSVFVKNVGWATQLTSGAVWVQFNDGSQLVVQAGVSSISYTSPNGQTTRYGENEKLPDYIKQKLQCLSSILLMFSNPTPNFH
Sequence of Casein kinase II subunit alpha (Homo sapiens) (P68400 whole entry, looked up): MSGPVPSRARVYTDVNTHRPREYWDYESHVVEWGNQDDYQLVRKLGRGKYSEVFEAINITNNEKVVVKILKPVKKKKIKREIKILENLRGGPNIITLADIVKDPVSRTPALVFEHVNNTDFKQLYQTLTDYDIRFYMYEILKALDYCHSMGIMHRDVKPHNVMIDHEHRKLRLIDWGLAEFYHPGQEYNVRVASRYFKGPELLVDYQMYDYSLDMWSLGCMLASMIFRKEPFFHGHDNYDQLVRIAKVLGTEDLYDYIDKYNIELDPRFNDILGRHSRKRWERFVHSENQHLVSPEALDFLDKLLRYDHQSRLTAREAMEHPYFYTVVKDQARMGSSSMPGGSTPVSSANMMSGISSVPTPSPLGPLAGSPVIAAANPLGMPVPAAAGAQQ

As to `CC1=C(C#N)C(c2ccc3[nH]nc(C)c3c2)C(C#N)=C(C)N1` [BAY-474], the inhibition in test [1] was 2%; in [2] it was -9%; in test [3], 12%; in test [4], -5%; in [5], 26%; in [6], -2%. In addition, the inhibition was -5% in test [7]; 4% in test [8]; 2% in test [9]; 26% in [10]; 9% in test [11]; -3% in test [12]. The inhibition was -6% in test [13], 19% in test [14] and 12% in test [15].
With `CC1=C(C#N)[C@@H](c2ccc3[nH]nc(C)c3c2)C(C#N)=C(c2ccc(Cl)cc2)N1` [BAY-827], the residual activity in test [16] was 100%; in test [17] it was 94.2%; in [18] it was 100%; in test [19], 82.1%; in [20], 31.8%; in test [21] it was 100%. In addition, the residual activity is 100% in test [22]; 97.9% in test [23]; 100% in test [24]; 100% in test [25]; 100% in [26]; 84.3% in test [27]. For the same molecule, the residual activity in test [28], in test [29], in test [30], in test [31], in test [32] and in [33] was 100% throughout. In addition, the residual activity in [34] is 100%; in [35] it was 100%; in test [36], 77.5%; in test [37], 100%; in [38] it was 99.4%; in test [39], 100%. The residual activity in test [40] is 100%; in [41] it was 100%; in [42], 78.1%; in test [43] it was 100%; in test [44], 95.9%; in test [45] it was 100%. Moreover, in test [46], the residual activity is 100%.
